Target: T1, aromatase (Homo sapiens, UniProt P11511)
T1 construct: 700 μl of aromatase preparation, usually 300-800 μg of microsomal protein per ml of assay buffer; from tissue; host or cells: microsomes
T1 sequence (P11511 1-503): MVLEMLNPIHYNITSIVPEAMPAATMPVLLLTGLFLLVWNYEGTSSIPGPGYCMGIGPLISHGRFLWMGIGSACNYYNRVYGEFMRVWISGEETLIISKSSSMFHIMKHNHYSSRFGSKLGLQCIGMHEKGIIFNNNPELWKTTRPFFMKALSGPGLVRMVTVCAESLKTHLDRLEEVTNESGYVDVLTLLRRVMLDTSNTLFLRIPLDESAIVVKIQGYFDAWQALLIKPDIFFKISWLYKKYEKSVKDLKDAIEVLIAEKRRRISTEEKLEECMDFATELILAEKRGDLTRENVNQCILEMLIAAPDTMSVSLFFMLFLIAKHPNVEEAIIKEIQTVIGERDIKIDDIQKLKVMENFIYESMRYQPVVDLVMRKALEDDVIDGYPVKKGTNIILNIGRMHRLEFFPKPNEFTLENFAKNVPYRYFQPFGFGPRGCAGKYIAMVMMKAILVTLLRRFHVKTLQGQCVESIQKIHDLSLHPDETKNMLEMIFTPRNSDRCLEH
Experiment: time-dependent aromatase inhibition assay (preincubation, Kitz-Wilson analysis)
Type: biochemical
Conditions: Kitz-Wilson plots
Procedure: In this assay, the inhibitor is preincubated with enzyme prior to assaying for activity in the presence of high substrate levels. A time-related decrease in enzyme activity can be indicative of a preferred mode of inhibition.
In the time-dependent assay, an amount of the enzyme inhibitor in 100 μl of the assay buffer described above which will provide assay concentrations which are usually between 1 nM and 10 μm are added to 35 ml centrifuge tubes containing 600 μl of the NADPH generating system. The preincubation is started by the addition of 700 μl of aromatase preparation, usually 300-800 μg of microsomal protein per ml of assay buffer. These preparations are mixed using a vortex mixer and incubated for 0, 5, 10 or 20 minutes at 25° C. […] The amount of radioactivity in the aqueous fraction is determined by scintillation procedures. The enzymatic activity for each concentration of inhibitor at each time period of preincubation is calculated as a percent of the "0" minute vehicle control arbitrarily set at 100%. Therefore, the present enzyme inhibition is expressed as a percentage: (100 percent minus percent enzyme activity with inhibitor present).
Enzyme kinetic analysis utilized Kitz-Wilson plots for time-dependent assays. […] The pseudo first-order rate constant for enzyme inactivation (kcat) and the half-time of inactivation (.tau.50) of infinite inhibitor concentrations were determined. […]

SMILES: C[C@]12CC[C@H]3[C@@H](CCC4=CC(=O)[C@H]5CNC[C@]43C5)[C@@H]1CCC2=O [2β,19-(methyleneamino)androst-4-ene-3,17-dione]
- .tau.50 (half-time of inactivation) (at infinite inhibitor concentrations): 2.66 min
- KI (inactivation) (inhibitor concentration giving half-maximal rate of enzyme inactivation, microsomal aromatase preparation, preincubation 0-20 min at 25° C., read-out: Ki (apparent Ki of inactivation)): 0.259 µM
